Patent publication US20240368121A1, “ESTROGEN RECEPTOR DEGRADERS, PHARMACEUTICAL COMPOSITIONS THEREOF, AND THEIR THERAPEUTIC APPLICATIONS” (BioTheryX, Inc., priority 2021, published 2024)

What was measured:
Format in all cases: cell-based
MCF7 cells = assay: Cell viability assay ([…]-GLO, 6-day treatment); conditions: Homo sapiens, MCF7, 144 h; MCF-7 cells, 6 days, CTG; read-out: Inhibition of Cancerous Cells IC50 MCF-7
Outline: (§1)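 MCF7 (MEM) and T47D (RPMI with insulin), both with 10% FBS, at 1,000 cells/well, treated with a 10-point compound dose series for 6 days, with medium and compound refreshed once. Viability read by CellTiter-Glo luminescence.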

T47D cells = assay: Cell viability assay ([…]-GLO, 6-day treatment); conditions: Homo sapiens, 144 h, 6 days, CTG, read-out: Inhibition of Cancerous Cells IC50 T47D
Outline: as §1

ERα = biological target: T1, ERα (Homo sapiens, UniProt P03372); assay: Protein degradation assay: ERα in MCF-7 cells via western blot; conditions: 6 h; for ERα Protein Degradation 1 nM: 1 nM compound; for ERα Protein Degradation 10 nM: 10 nM compound; for ERα Protein Degradation 100 nM: 100 nM compound
T1 construct: degrading an ERα in MCF-7 cells via a western blot; endogenous in cells; host or cells: MCF-7
T1 sequence (P03372 1-595): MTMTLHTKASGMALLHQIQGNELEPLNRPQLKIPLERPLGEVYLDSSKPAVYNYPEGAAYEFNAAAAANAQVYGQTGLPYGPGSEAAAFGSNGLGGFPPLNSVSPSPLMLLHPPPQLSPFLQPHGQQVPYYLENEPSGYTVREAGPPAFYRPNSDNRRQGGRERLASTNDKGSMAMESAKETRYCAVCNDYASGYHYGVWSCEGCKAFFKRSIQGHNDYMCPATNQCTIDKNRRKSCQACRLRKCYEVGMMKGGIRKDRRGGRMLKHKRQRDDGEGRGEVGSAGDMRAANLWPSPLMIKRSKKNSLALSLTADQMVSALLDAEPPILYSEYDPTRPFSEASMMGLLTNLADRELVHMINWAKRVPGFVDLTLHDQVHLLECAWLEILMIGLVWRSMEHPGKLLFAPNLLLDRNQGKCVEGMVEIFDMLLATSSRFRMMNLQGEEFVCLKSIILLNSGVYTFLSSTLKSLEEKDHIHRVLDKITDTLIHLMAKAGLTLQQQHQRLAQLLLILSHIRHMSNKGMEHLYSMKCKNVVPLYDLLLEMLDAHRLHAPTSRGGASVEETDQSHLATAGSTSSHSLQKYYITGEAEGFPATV
Outline: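 MCF-7 cells in MEM/10% FBS with insulin, seeded 300,000/well, treated 6 h at set concentrations (e.g., 1 nM–1 μM). Whole-cell lysates immunoblotted for ERα with GAPDH loading control, chemiluminescent detection; percentage degradation reported in binned categories (≥50%, 25–50%, 10–25%, <10%).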

Compound | IC50 (MCF7 cells) [nM] | IC50 (T47D cells) [nM] | ERα Protein Degradation 1 nM (ERα) | ERα Protein Degradation 10 nM (ERα) | ERα Protein Degradation 100 nM (ERα)
O=C1CCC(N2Cc3c(cc(F)cc3C3CCN(CCCCCCOc4ccc([C@@H]5c6ccc(O)cc6CC[C@@H]5c5ccccc5)cc4)CC3)C2=O)C(=O)N1 (stereo partly drawn) [Compound A2, 3-(6-Fluoro-4-(1-(6-(4-((1R,2S)-6-hydroxy-2-phenyl-1,2,3,4-tetrahydro-naphthalen-1-yl)phenoxy)hexyl)piperidin-4-yl)-1-oxoisoindolin-2-yl)piperidine-2,6-dione] | 0.72 | 0.61 | D (a percentage degradation value of less than 10%) | D (a percentage degradation value of less than 10%) | D (a percentage degradation value of less than 10%)
O=C1CCC(N2Cc3cc(C4CCN(CC5CCN(c6ccc([C@@H]7c8ccc(O)cc8CC[C@@H]7c7ccccc7)cc6)CC5)CC4)c(F)cc3C2=O)C(=O)N1 (stereo partly drawn) [Compound A6, 3-(6-fluoro-5-(1-((1-(4-((1R,2S)-6-hydroxy-2-phenyl-1,2,3,4-tetrahydro-naphthalen-1-yl)phenyl)piperidin-4-yl)methyl)piperidin-4-yl)-1-oxoisoindolin-2-yl)piperidine-2,6-dione] | 4 | 0.47 | B (a percentage degradation value of less than 50% and no less than 25%) | B (a percentage degradation value of less than 50% and no less than 25%) | D (a percentage degradation value of less than 10%)
O=C1CC[C@@H](N2Cc3cc(N4CCN(CC5CCN(c6ccc(C7c8ccc(O)cc8CC[C@@H]7c7ccccc7)cc6)CC5)CC4)ccc3C2=O)C(=O)N1 (stereo in doubt) [Compound A15, (R)-3-(5-(4-((1-(4-((1R,2S)-6-Hydroxy-2-phenyl-1,2,3,4-tetrahydronaphthalen-1-yl)phenyl)piperidin-4-yl)methyl)piperazin-1-yl)-1-oxoisoindolin-2-yl)piperidine-2,6-dione] | 1.2 | 0.96 | D (a percentage degradation value of less than 10%) | C (a percentage degradation value of less than 25% and no less than 10%) | D (a percentage degradation value of less than 10%)
O=C1CCC(N2Cc3cc(C4CCN(CCCCCCOc5ccc([C@@H]6c7ccc(O)cc7CC[C@@H]6c6ccccc6)cc5)CC4)c(F)cc3C2=O)C(=O)N1 (stereo partly drawn) [Compound A5, 3-(6-Fluoro-5-(1-(6-(4-((1R,2S)-6-hydroxy-2-phenyl-1,2,3,4-tetrahydro-naphthalen-1-yl)phenoxy)hexyl)piperidin-4-yl)-1-oxoisoindolin-2-yl)piperidine-2,6-dione] | 0.37 | 0.22 | A (a percentage degradation value of no less than 50%) | A (a percentage degradation value of no less than 50%) | A (a percentage degradation value of no less than 50%)
O=C1CCC(N2Cc3cc(N4CCN(CC5CCN(c6ccc([C@@H]7c8ccc(O)cc8CC[C@@H]7c7ccccc7)cc6)CC5)CC4)ccc3C2=O)C(=O)N1 (stereo partly drawn) [Compound A14, 3-(5-(4-((1-(4-((1R,2S)-6-Hydroxy-2-phenyl-1,2,3,4-tetrahydronaphthalen-1-yl)-phenyl)piperidin-4-yl)methyl)piperazin-1-yl)-1-oxoisoindolin-2-yl)piperidine-2,6-dione] | 1.1 | 0.86 | A (a percentage degradation value of no less than 50%) | A (a percentage degradation value of no less than 50%) | A (a percentage degradation value of no less than 50%)

More lines, main results first:

IC50 (MCF7 cells) [nM] | IC50 (T47D cells) [nM] | Compound | ERα Protein Degradation 1 nM (ERα) | ERα Protein Degradation 10 nM (ERα) | ERα Protein Degradation 100 nM (ERα)
1.2 | 0.48 | O=C1CCC(c2cccc(OCC(=O)N3CCN(CCCCOc4ccc([C@@H]5c6ccc(O)cc6CC[C@@H]5c5ccccc5)cc4)CC3)c2)C(=O)N1 (stereo partly drawn) [Compound B5, 3-(3-(2-(4-(4-(4-((1R,2S)-6-hydroxy-2-phenyl-1,2,3,4-tetrahydronaphthalen-1-yl)phenoxy)butyl)piperazin-1-yl)-2-oxoethoxy)phenyl)piperidine-2,6-dione] | D (a percentage degradation value of less than 10%) | D (a percentage degradation value of less than 10%) | D (a percentage degradation value of less than 10%)
5 | 2.6 | O=C1CCC(Nc2cccc(OCC(=O)N3CCN(CC4CCN(c5ccc([C@@H]6c7ccc(O)cc7CC[C@@H]6c6ccccc6)cc5)CC4)CC3)c2)C(=O)N1 (stereo partly drawn) [Compound B16, 3-((3-(2-(4-((1-(4-((1R,2S)-6-hydroxy-2-phenyl-1,2,3,4-tetrahydronaphthalen-1-yl)phenyl)piperidin-4-yl)methyl)piperazin-1-yl)-2-oxoethoxy)phenyl)amino)piperidine-2,6-dione] | C (a percentage degradation value of less than 25% and no less than 10%) | C (a percentage degradation value of less than 25% and no less than 10%) | C (a percentage degradation value of less than 25% and no less than 10%)
0.25 | 0.01 | Cn1nc(C2CCC(=O)NC2=O)c2ccc(OCC(=O)N3CCN(CCCCOc4ccc([C@@H]5c6ccc(O)cc6CC[C@@H]5c5ccccc5)cc4)CC3)cc21 (stereo partly drawn) [Compound B2, 3-(6-(2-(4-(4-(4-((1R,2S)-6-hydroxy-2-phenyl-1,2,3,4-tetrahydronaphthalen-1-yl)phenoxy)butyl)piperazin-1-yl)-2-oxoethoxy)-1-methyl-1H-indazol-3-yl)piperidine-2,6-dione] | B (a percentage degradation value of less than 50% and no less than 25%) | B (a percentage degradation value of less than 50% and no less than 25%) | C (a percentage degradation value of less than 25% and no less than 10%)
1.7 | 0.49 | O=C1CCN(c2cccc(OCC(=O)N3CCN(CCCCOc4ccc([C@@H]5c6ccc(O)cc6CC[C@@H]5c5ccccc5)cc4)CC3)c2)C(=O)N1 [Compound B9, 1-(3-(2-(4-(4-(4-((1R,2S)-6-hydroxy-2-phenyl-1,2,3,4-tetrahydronaphthalen-1-yl)phenoxy)butyl)piperazin-1-yl)-2-oxoethoxy)phenyl)dihydropyrimidine-2,4(1H,3H)-dione] | D (a percentage degradation value of less than 10%) | D (a percentage degradation value of less than 10%) | D (a percentage degradation value of less than 10%)
5.6 | 3.2 | Cc1c(-c2ccc(O)cc2)n(Cc2ccc(OCCCCN3CCN(C(=O)COc4ccc(N5CCC(=O)NC5=O)cc4)CC3)cc2)c2ccc(O)cc12 [Compound E27, 1-(4-(2-(4-(4-(4-((5-hydroxy-2-(4-hydroxyphenyl)-3-methyl-1H-indol-1-yl)-methyl)phenoxy)butyl)piperazin-1-yl)-2-oxoethoxy)phenyl)dihydropyrimidine-2,4(1H,3H)-dione] | D (a percentage degradation value of less than 10%) | D (a percentage degradation value of less than 10%) | D (a percentage degradation value of less than 10%)
19 | 0.84 | Cc1c(-c2ccc(O)cc2)n(Cc2ccc(OCCCCN3CCN(C(=O)COc4cccc5c4CN(C4CCC(=O)NC4=O)C5=O)CC3)cc2)c2ccc(O)cc12 (stereo not shown) [Compound E1, 3-(4-(2-(4-(4-(4-((5-hydroxy-2-(4-hydroxyphenyl)-3-methyl-1H-indol-1-yl)-methyl)phenoxy)butyl)piperazin-1-yl)-2-oxoethoxy)-1-oxoisoindolin-2-yl)piperidine-2,6-dione] | C (a percentage degradation value of less than 25% and no less than 10%) | B (a percentage degradation value of less than 50% and no less than 25%) | B (a percentage degradation value of less than 50% and no less than 25%)
